Data published in US8889878B2, “Haloalky-substituted amides as insecticides and acaricides” (Bayer CropScience AG, priority 2009, dated 2014).

What was measured:
[1] = tested on: Boophilus microplus; assay: Boophilus microplus test (BOOPMI injection), Example 11; format: in vivo; conditions: application rate 20 μg/animal, injected into abdomen, after 7 days; for pest or weed control at 0.02 mg: Rhipicephalus microplus, 168 h, read-out: efficacy in % (fertile eggs laid)
Method in brief: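 Adult ticks injected in the abdomen with compound diluted in DMSO, then held in a climate-controlled room. Efficacy in % determined after 7 days from fertile eggs laid; 100% means no tick laid fertile eggs.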

[2] = logP by HPLC on reverse-phase column (EEC Directive 79/831 Annex V.A8); format: physicochemical; conditions: for chromatographic logP: reverse-phase C18 HPLC column, pH 2.7, HPLC, C18 reverse phase, 43° C., acidic range pH 2.7, calibration with alkan-2-ones; for logP: HPLC-MS
Description: The logP values reported in the above Tables and Preparation Examples were determined according to EEC Directive 79/831 Annex V.A8 by HPLC (High Performance Liquid Chromatography) on a reverse-phase column (C18). Temperature 43° C.

[3] = tested on: Boophilus microplus; assay: Boophilus microplus test (BOOPMI injection), Example 1; format: in vivo; conditions: application rate 20 μg/animal, injected into abdomen, after 7 days
Method in brief: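 Compound in DMSO, diluted with water, injected into the abdomen of engorged ticks, which were then held in a climate-controlled room. Efficacy was scored after 7 days from fertile egg laying, with 100% meaning no tick laid fertile eggs.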

[4] = tested on: mustard beetle (Phaedon cochleariae); assay: Phaedon test (PHAECO spray treatment), Example 16; format: in vivo; conditions: application rate 500 g/ha, china cabbage leaf discs sprayed, after the desired time; for pest or weed control at 500 g/ha: Phaedon cochleariae, foliar, read-out: efficacy in %
Description: Phaedon Test (PHAECO Spray Treatment)
(§1) • Solvent: 78.0 parts by weight of acetone • 1.5 parts by weight of dimethylformamide • Emulsifier: 0.5 part by weight of alkylaryl polyglycol ether
To prepare an appropriate active ingredient formulation, 1 part by weight of active ingredient is mixed with the stated amounts of solvent and emulsifier, and the concentrate is diluted with emulsifier-containing water to the desired concentration. […]
After the desired time, the efficacy in % is determined. 100% means that all beetle larvae were killed; 0% means that no beetle larvae were killed.

[5] = tested on: Ctenocephalides felis; assay: Ctenocephalides felis oral (CTECFE), Example 12; format: in vivo; conditions: application rate 100 ppm in citrated cow's blood, after 2 days
Description: (§2) Ctenocephalides felis Oral ([…]) • Solvent: 1 part by weight of dimethyl sulphoxide For the purpose of preparing an appropriate active ingredient formulation, 10 mg of active ingredient are mixed with 0.5 ml of dimethyl sulphoxide. A portion of the concentrate is diluted with citrated cow's blood and the desired concentration is established. About 20 unfed adult fleas (Ctenocephalides felis) are placed into a chamber sealed at the top and bottom with gauze. A metal cylinder with its lower end sealed with Parafilm is placed onto the chamber. The cylinder contains the blood-active ingredient preparation, which can be consumed by the fleas through the Parafilm membrane. After 2 days, the kill rate in % is determined. 100% means that all fleas were killed; 0% means that no fleas were killed.

[6] = tested on: Musca domestica adults; assay: Musca domestica test (MUSCDO), Example 14; format: in vivo; conditions: application rate 100 ppm, treated sponge, after 2 days
Method in brief: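 Compound dissolved in DMSO and diluted in water to the test concentration, then applied to a sponge in vessels holding adult flies. Percent kill scored after 2 days (100% = all flies dead).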

[7] = tested on: mustard beetle (Phaedon cochleariae); assay: Phaedon test (PHAECO spray treatment), Example 7; format: in vivo; conditions: application rate 20 g/ha, china cabbage leaf discs sprayed, after 7 days
Method in brief: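 Spray formulation (acetone/DMF with alkylaryl polyglycol ether, diluted in emulsifier-containing water) applied to Chinese cabbage leaf discs, which were dried and then stocked with mustard beetle larvae. Efficacy scored at 7 days as % larvae killed (100% all, 0% none).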

[8] = tested on: red spider mite (Tetranychus urticae); assay: Tetranychus test, OP-resistant (TETRUR spray treatment), Example 8; format: in vivo; conditions: application rate 20 g/ha, common bean leaf discs sprayed, after 6 days
Method in brief: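 Bean (Phaseolus vulgaris) leaf discs carrying all stages of OP-resistant Tetranychus urticae sprayed with compound in acetone/DMF with emulsifier, diluted in water to the test concentration. Mortality scored after 6 days as % efficacy (100% = all mites killed).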

[9] = tested on: green peach aphid (Myzus persicae); assay: Myzus test (MYZUPE spray treatment), Example 5; format: in vivo; conditions: application rate 20 g/ha, china cabbage leaf discs sprayed, after 6 days
Description: Myzus Test (MYZUPE Spray Treatment)
• Solvent: 78 parts by weight of acetone • 1.5 parts by weight of dimethylformamide • Emulsifier: 0.5 part by weight of alkylaryl polyglycol ether
To prepare an active ingredient formulation, 1 part by weight of active ingredient is mixed with the stated amounts of solvent and emulsifier, and the concentrate is diluted with emulsifier-containing water to the desired concentration. Leaf discs from china cabbage (Brassica pekinensis) infested by all stages of the green peach aphid (Myzus persicae) are sprayed with an active ingredient formulation of the desired concentration.
After 6 days, the efficacy in % is determined. 100% means that all aphids were killed; 0% means that no aphids were killed.

[10] = tested on: green peach aphid (Myzus persicae); assay: Myzus test (MYZUPE spray treatment), Example 17; format: in vivo; conditions: china cabbage leaf discs sprayed, after 6 days
Method in brief: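 Chinese cabbage leaf discs infested with all aphid stages were sprayed with compound formulated in acetone/dimethylformamide plus alkylaryl polyglycol ether emulsifier, diluted in emulsifier-containing water. Mortality read after 6 days as % efficacy (100% all killed, 0% none killed).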

[11] = tested on: Ctenocephalides felis; assay: Ctenocephalides felis oral (CTECFE), Example 2; format: in vivo; conditions: application rate 20 ppm in citrated cow's blood, after 2 days
Description: as §2, with “an” for “an appropriate”, “concentrate was” for “concentrate is”, “concentration was prepared.” for “concentration is established. About”

[12] = tested on: Lucilia cuprina larvae; assay: Lucilia cuprina test (LUCICU), Example 3; format: in vivo; conditions: application rate 20 ppm, treated horsemeat, after 2 days
Description: Lucilia cuprina Test (LUCICU) • Solvent: dimethyl sulphoxide To prepare an active ingredient formulation, 10 mg of active ingredient are mixed with 0.5 ml of dimethyl sulphoxide, and the concentrate is diluted with water to the desired concentration. Vessels containing horsemeat which has been treated with the active ingredient formulation of the desired concentration are populated with Lucilia cuprina larvae. After 2 days, the kill rate in % is determined. 100% means that all larvae were killed; 0% means that no larvae were killed.

[13] = tested on: red spider mite (Tetranychus urticae); assay: Tetranychus test; OP-resistant (TETRUR spray treatment), Example 18; format: in vivo; conditions: application rate 500 g/ha, common bean leaf discs sprayed, after 6 days
Description: Tetranychus Test; OP-Resistant (TETRUR Spray Treatment)
as §1
To prepare an appropriate active ingredient formulation, 1 part by weight of active ingredient is mixed with the stated amounts of solvent and emulsifier, and the concentrate is diluted with emulsifier-containing water to the desired concentration. Leaf discs from the common bean (Phaseolus vulgaris) infested by all stages of the red spider mite (Tetranychus urticae) are sprayed with an active ingredient formulation of the desired concentration.
After 6 days, the efficacy in % is determined. 100% means that all spider mites were killed; 0% means that no spider mites were killed.

[14] = tested on: armyworm (Spodoptera frugiperda); assay: Spodoptera frugiperda test (SPODFR spray treatment), Example 15; format: in vivo; conditions: maize leaf discs sprayed, after 7 days
Method in brief: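 Maize leaf discs sprayed with active ingredient in acetone/DMF with alkylaryl polyglycol ether emulsifier, diluted in water, then populated with caterpillars after drying. Efficacy in % after 7 days: 100% all caterpillars killed, 0% none.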

[15] = tested on: Boophilus microplus females of the SP-resistant Parkhurst strain; assay: Boophilus microplus test (DIP), Example 10; format: in vivo; conditions: application rate 100 ppm, after 7 days
Description: Boophilus microplus Test (DIP)
Test animals: adult engorged Boophilus microplus females of the SP-resistant Parkhurst strain • Solvent: dimethyl sulphoxide
10 mg of active ingredient are dissolved in 0.5 ml of dimethyl sulphoxide. For the purpose of preparing a suitable formulation, the active ingredient solution is diluted with water to the concentration desired in each case.
This active ingredient formulation is pipetted into tubes. 8-10 ticks are transferred into a further tube with holes. The tube is immersed into the active ingredient formulation, and all ticks are completely wetted. After the liquid has run out, the ticks are transferred onto filter discs in plastic dishes and stored in a climate-controlled room. The efficacy is assessed after 7 days by the number of fertile eggs laid. Eggs whose fertility is not outwardly visible are stored in glass tubes in a climate-controlled cabinet until the larvae hatch. Efficacy of 100% means that none of the ticks has laid any fertile eggs.

SMILES | kill rate in % (efficacy) [5] [%] | efficacy in % (fertile eggs laid) [1] [%] | logP [2] | efficacy in % [7] [%] | efficacy in % [8] [%] | efficacy in % [9] [%] | other results
O=C(/C=C/c1cccc(NC(=O)c2cccnc2Cl)c1)NC(c1cccc(C(F)(F)F)c1)C(F)(F)F (centres unmarked) [Ia-5, 2-Chloro-N-{3-[(1E)-3-oxo-3-({2,2,2-trifluoro-1-[3-(trifluoromethyl)phenyl]ethyl}amino)prop-1-en-1-yl]phenyl}nicotinamide] | 80 | – | – | – | – | – | pest or weed control at 0.02 mg [1]: 100%; chromatographic logP [2]: 3.39; efficacy in % (fertile eggs laid) [3]: 100%; pest or weed control at 500 g/ha [4]: 100%
Cc1cc(/C=C/C(=O)NC(c2cccc(C(F)(F)F)c2)C(F)(F)F)ccc1C(=O)NCC(F)(F)F (centres unmarked) [Ia-18] | 98 | 100 | HPLC-MS: logP = 3.56; mass | – | – | – | kill rate in % (efficacy) [6]: 90%
O=C(/C=C/c1ccc(C(=O)NCc2ccccn2)c(Br)c1)NC(c1cccc(C(F)(F)F)c1)C(F)(F)F (centres unmarked) [Ia-41] | – | 100 | HPLC-MS: logP = 2.76; mass | 100 | 100 | 100 | efficacy in % (fertile eggs laid) [3]: 100%; efficacy in % ([10]; application rate 500 g/ha): 90%; kill rate in % (efficacy) [11]: 100%; kill rate in % (efficacy) [12]: 90%
CC(CF)NC(=O)c1ccc(/C=C/C(=O)NC(c2cccc(C(F)(F)F)c2)C(F)(F)F)cc1C(F)(F)F (centres unmarked) [Ia-75, N-(1-Fluoropropan-2-yl)-4-[(1E)-3-oxo-3-({2,2,2-trifluoro-1-[3-(trifluoromethyl)phenyl]-ethyl}amino)prop-1-en-1-yl]-2-(trifluoromethyl)benzamide] | – | – | – | 100 | 100 | 80 | pest or weed control at 500 g/ha ([13]; Tetranychus urticae, foliar, 144 h, read-out: efficacy in %): 100%; pest or weed control at 0.02 mg [1]: 100%; chromatographic logP [2]: 3.37; pest or weed control at 500 g/ha [4]: 100%; pest or weed control at 500 g/ha ([14]; Spodoptera frugiperda, foliar, 168 h, application rate 500 g/ha, read-out: efficacy in %): 100%
Cn1cnc(CNC(=O)c2ccc(/C=C/C(=O)NC(c3cccc(C(F)(F)F)c3)C(F)(F)F)cc2C(F)(F)F)c1 (centres unmarked) [Ia-76] | 80 | 100 | HPLC-MS: logP = 1.72; mass | 100 | – | – | efficacy in % (fertile eggs laid) [3]: 100%
Cc1cc(/C=C/C(=O)NC(c2cccc(C(F)(F)F)c2)C(F)(F)F)ccc1C(=O)NCC(F)F (centres unmarked) [Ia-100] | – | – | HPLC-MS: logP = 3.13 mass | 100 | 80 | – | efficacy in % [13]: Ia-100%; efficacy in % [4]: Ia-100%; efficacy in % ([14]; application rate 500 g/ha): Ia-100%
CC(CF)NC(=O)c1ccc(/C=C/C(=O)NC(c2cccc(C(F)(F)F)c2)C(F)(F)F)cc1Cl (centres unmarked) [Ia-112] | – | 100 | HPLC-MS: logP = 3.25 mass | 100 | 100 | 100 | efficacy in % (fertile eggs laid) [15]: 100%
CC(NC(=O)c1ccc(/C=C/C(=O)NC(c2cccc(C(F)(F)F)c2)C(F)(F)F)cc1Cl)C1CC1 (centres unmarked) [Ia-114] | – | 100 | HPLC-MS: logP = 3.68 mass | 100 | 100 | – | efficacy in % (fertile eggs laid) [15]: 85%
Cc1cc(/C=C/C(=O)NC(c2cccc(C(F)(F)F)c2)C(F)(F)F)ccc1C(=O)NCCC1CC1 (centres unmarked) [Ia-115] | – | – | HPLC-MS: logP = 3.61 mass | 100 | 90 | 90 | efficacy in % ([10]; application rate 100 g/ha): 100%
C#CC(C)(C)NC(=O)c1ccc(/C=C/C(=O)NC(c2cccc(C(F)(F)F)c2)C(F)(F)F)cc1C(F)(F)F (centres unmarked) [Ia-146] | 90 | 100 | HPLC-MS: logP = 3.8; mass | – | – | – | efficacy in % ([14]; application rate 100 g/ha): 100%
O=C(/C=C/c1ccc(C(=O)NC(CF)CF)c(Cl)c1)NC(c1cccc(C(F)(F)F)c1)C(F)(F)F (centres unmarked) [Ia-155] | – | 100 | HPLC-MS: logP = 3.36; mass | – | – | – | efficacy in % (fertile eggs laid) [15]: 90%; efficacy in % ([14]; application rate 100 g/ha): 83%; efficacy in % ([10]; application rate 100 g/ha): 100%
